Data on three molecules can be found in publication PMC5944968, “A multi-chamber microfluidic intestinal barrier model using Caco-2 cells for drug transport studies” (PLoS ONE, 2018).

Read-outs that look alike come from different tables or passages of the source.

One series concerns P-gp. Briefly: Rh 123 bidirectional permeability / P-gp efflux across Caco-2 monolayers in microfluidic device. The format is in vitro ADME. Particulars: human, day 10 of cell culture; for Papp at 10 μM: Caco-2, 10 μM Rh 123, microfluidic device, n = 3. How it is done:
Before carrying out the Rh 123 studies, buffer^+ was flowed to both the upper and lower channels for 1 hr. Following that Rh 123 (Sigma-Aldrich, Denmark) prepared in buffer^+ to a concentration of 10 μM was flowed to the basolateral side. 200μl of buffer^+ was added to each waste reservoirs. At each 15min interval, 150 μl was removed from the respective waste reservoirs with replacement of 150μl of buffer^+. Studies were carried out in triplicates.
(§1) The Caco-2 translocation of peptide, [^3H]mannitol or Rh 123 over Caco-2 layers is expressed as the apparent permeability (Papp), given by: Papp=dQ/dt1/AC0 (2) Where dQ/dt is the steady-state flux across the cell layer (pmol/s), A is the surface area (1.12 cm^2 for Transwell, 0.1 cm^2 for microfluidic), and C0 is the initial sample concentration.
For the P-gp studies, the collected samples were analyzed for Rh 123 content using a fluorescence plate reader with excitation/emission of 485/546nm, based on standard curves prepared from test solutions. The efflux ratio of P-gp was determined by: effluxratio=Papp(Basal→Apical)/Papp(Apical→Basal) (4)
In general terms: Caco-2 cells form a polarised layer with tight junctions and transporters.

The subject of series [1] is Caco-2 monolayers. Briefly: TEER of Caco-2 monolayers in microfluidic device after permeation enhancer. The format is cell-based, Human. How it is done:
TEER measurements (Ω) of the Caco-2 cells cultured in the microfluidic device were obtained by coupling the connecting wires of the electrodes to a multimeter (Keithley, USA) using alligator clips. Each chamber contained two sets of top electrodes and two sets of bottom electrodes. Each time the TEER values were recorded, only one top electrode and one bottom electrode are connected to the multimeter. Four different configurations of TEER values were recorded, averaged to calculate the final TEER values measured across the microchamber.
The final TEER values (Ω cm^2) were determined by subtracting the baseline measurement in the absence of cells (Rbaseline) from the read out (R1) and multiplying with the area of cell culture (Ao, 1.12 cm^2 for Transwell and 0.1 cm^2 for the microfluidic device) as shown in Eq 1.
(§2) Buffer^+ was prepared by mixing Hank’s Buffered Saline solution (HBSS; Gibco, Denmark), 0.1% (wt/vol) OVA (ovalbumin; from chicken egg white, Sigma, Denmark) and 10 mM HEPES (HEPES; Sigma, Denmark) at pH 7.4.
To validate the accuracy and dynamic span of TEER values acquired from the electrodes on the microfluidic chip, a permeation enhancer, tetradecyl-β-D-maltoside (TDM), was introduced to the Caco-2 monolayers for two hours. The concentration of TDM used in the earlier reported studies is expected to cause a transient disruption of the Caco-2 monolayer integrity, while causing minimal cell death, which is reversible after 24 hours in fresh cell culture medium.

The subject of series [2] is Caco-2 monolayers. Briefly: TEER of Caco-2 monolayers in Transwell inserts after permeation enhancer. The format is cell-based, Human. The settings on record: recovering to normal levels within 24h in fresh medium. How it is done:
TEER was measured in Transwell inserts with Millicell ERS-2 chopstick Silver/SilverChloride (Ag/AgCl) electrodes (Millipore, USA), and calculated via Eq 1 (see below). […] Sigma, Denmark), insulin (Novo Nordisk, Denmark) and tetradecyl-β-D-Maltoside (TDM; Sigma, Denmark) were all prepared using buffer^+ as the diluent. Buffer^+ was prepared by mixing Hank’s Buffered Saline solution (HBSS; Gibco, Denmark), 0.1% (wt/vol) OVA (ovalbumin; from chicken egg white, Sigma, Denmark) and 10 mM HEPES (HEPES; Sigma, Denmark) at pH 7.4. […] The gentle shaking was to ensure there was little unstirred diffusion layers of fluid in the basolateral region. […] PerkinElmer), after mixing with scintillation fluid (Microscint-40; PerkinElmer), along with a peptide and FD4 content. After the experiments, the cells were washed twice with buffer^+ and replenished with medium for 24 hour recovery. In the microfluidic system, similar to the Transwell studies, before the start of experiment, the DMEM was replaced with buffer^+. Buffer^+ was flowed into the system for 1 hr. Subsequently, the buffer was changed to the test solutions in the top fluidic layer. Flow rate was set at 3 μl/min (in both the upper and lower layers). In the collection reservoirs of the basolateral chambers, 200 μl of buffer was added to each of the collection reservoirs. […]

In series [3] the test system is Caco-2 monolayers. Here is the method: as §2, §1

In the case of `COC(=O)c1ccccc1-c1c2ccc(=N)cc-2oc2cc(N)ccc12` [Rh 123, Rhodamine 123], the apparent permeability (Papp) (in general, a coefficient for how fast a substance crosses the barrier) at 10 μM was around 1.03 ×10⁻⁶ cm/s with P-gp (read-out: Papp(apical → basal)) and around 11.2 ×10⁻⁶ cm/s in the series with P-gp (read-out: Papp(basal → apical)). In the series with P-gp (Caco-2, microfluidic device, read-out: efflux ratio Papp(Basal→Apical)/Papp(Apical→Basal)), the efflux ratio at 10 μM was around 10.8.

In the case of `CCCCCCCCCCCCCCO[C@@H]1O[C@H](CO)[C@@H](O[C@H]2O[C@H](CO)[C@@H](O)[C@H](O)[C@H]2O)[C@H](O)[C@H]1O` [TDM, tetradecyl-β-D-maltoside], in the series with Caco-2 monolayers [1] (TDM for two hours), the “TEER in the presence of TDM, % of initial values” is 21%. Besides, the “TEER recovery, % of initial values” in the series on Caco-2 monolayers [1] (after 24 hours of continuous perfusion with cell culture medium) was found to be 90%. Further, the “TEER change following TDM addition” value in the series with Caco-2 monolayers [1] (recovering to normal levels within 24h in fresh medium) and with Caco-2 monolayers [2] was “reversibly decreased” in each case.

As to `OC[C@@H](O)[C@@H](O)[C@H](O)[C@H](O)CO` [mannitol], the “Papp in microfluidic chip compared to static Transwell cultures” value in the series with Caco-2 monolayers [3] is “slightly higher (not significant)”.
